Measurements: patent publication US6461997B1, “Triazole sulfones having herbicidal activity” (Monsanto Technology LLC, priority 1999, dated 2002)

Experiments:
[1] = test system: PANMI (wild proso millet); assay: Pre-emergence herbicidal activity, warm season; type: in vivo, Panicum miliaceum; settings: GR80 = lowest tested rate (300, 100, 30, 10 g/ha) with 80% or greater inhibition; approx. 14 days after treating; 30/21° C.
How it was run: (§1)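 Seeds sown in sterilised fertilised topsoil received surface-applied compound in 50:50 acetone/water, typically at 300, 100, 30 and 10 g/ha, then greenhouse-grown at 30/21° C (warm-season species) or 18/13° C (cool-season species). Percent inhibition versus untreated plants was scored at about 14 days, giving GR80; an asterisk marks activity short of 80% at the top rate.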

SASKR (russian thistle) = assay: Pre-plant incorporated (PPI) herbicidal activity, cool season; type: in vivo, Salsola kali; settings: for Percent inhibition SASKR: weed, PPI application
How it was run: (§2)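 Seeds were sown on compacted topsoil and covered with soil that had been sprayed with compound in organic solvent and mixed through. Pots got 0.64 cm overhead irrigation, then greenhouse at 30/21 °C (warm-season species) or 18/13 °C (cool-season species) day/night. Percent inhibition versus untreated plants was scored about 14 days after planting.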

LOLMG (annual ryegrass) = assay: as above; type: in vivo, Lolium multiflorum; settings: for Percent inhibition LOLMG: weed, PPI application
How it was run: as §2

[2] = test system: AGSST (creeping bentgrass); assay: as above; type: in vivo, Agrostis stolonifera; settings: for Percent inhibition AGSST: weed, PPI application
How it was run: as §2

corn (ZEAMX) = assay: Selectivity test, PPI, warm season crop; type: in vivo, Zea mays; settings: PPI application
How it was run: (§3)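 Pre-plant incorporated: compound in organic solvent sprayed onto cover soil, mixed and laid over seeds; untreated soil for controls. Greenhouse after treatment: warm season 30/21° C., cool season 18/13° C. day/night. Percent inhibition versus untreated plants scored about 14 days after planting.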

DIGSA (large crabgrass) = assay: Pre-plant incorporated (PPI) herbicidal activity, warm season; type: in vivo, Digitaria sanguinalis; settings: for Percent inhibition DIGSA: PPI application
How it was run: as §2

AVEFA (wild oat) = assay: Pre-plant incorporated (PPI) herbicidal activity, cool season; type: in vivo, Avena fatua; settings: for Percent inhibition AVEFA: weed, PPI application
How it was run: as §2

soybean (GLYMX) = assay: Selectivity test, PPI, warm season crop; type: in vivo, Glycine max; settings: PPI application
How it was run: as §3

[3] = test system: CIRAR (canada thistle (seedling)); assay: Pre-emergence herbicidal activity, warm season; type: in vivo, Cirsium arvense; settings: GR80 = lowest tested rate (300, 100, 30, 10 g/ha) with 80% or greater inhibition; approx. 14 days after treating; 30/21° C.
How it was run: as §1

SOLNI (black nightshade) = assay: Pre-emergence herbicidal activity, warm season; type: in vivo, Solanum nigrum; settings: GR80 = lowest tested rate (300, 100, 30, 10 g/ha) with 80% or greater inhibition; approx. 14 days after treating; 30/21° C.
How it was run: as §1

STEME (common chickweed) = assay: Pre-emergence herbicidal activity, cool season; type: in vivo, Stellaria media; settings: lowest tested rate with 80% or greater inhibition; rates 300, 100, 30, 10 g/ha; about 14 days
How it was run: as §1

[4] = pre-plant incorporated, lowest tested rate with 80% or greater inhibition, about 14 days

## C=C(CC(F)(F)S(=O)(=O)c1ncn(C(=O)N(CC)CC)n1)C[Si](C)(C)C [Example 20]
[1]
  Pre-emergence activity (GR80) PANMI: 100 g/ha
SASKR (russian thistle); [4]
  PPI activity GR80, SASKR: 300 g/ha
SASKR (russian thistle); 10 g/ha
  Percent inhibition SASKR: 0%
SASKR (russian thistle); 30 g/ha
  Percent inhibition SASKR: 0%
SASKR (russian thistle); 100 g/ha
  Percent inhibition SASKR: 40%
SASKR (russian thistle); 300 g/ha
  Percent inhibition SASKR: 0%
SASKR (russian thistle); 900 g/ha
  Percent inhibition SASKR: 100%
LOLMG (annual ryegrass); [4]
  PPI activity GR80, LOLMG: * (activity observed, at least at highest rate, but <80% inhibition)
LOLMG (annual ryegrass); 10 g/ha
  Percent inhibition LOLMG: 0%
LOLMG (annual ryegrass); 30 g/ha
  Percent inhibition LOLMG: 30%
LOLMG (annual ryegrass); 100 g/ha
  Percent inhibition LOLMG: 60%
LOLMG (annual ryegrass); 300 g/ha
  Percent inhibition LOLMG: 85%
LOLMG (annual ryegrass); 900 g/ha
  Percent inhibition LOLMG: 75%
[2]; [4]
  PPI activity GR80, AGSST: 30 g/ha
[2]; 10 g/ha
  Percent inhibition AGSST: 0%
[2]; 30 g/ha
  Percent inhibition AGSST: 10%
[2]; 100 g/ha
  Percent inhibition AGSST: 85%
[2]; 300 g/ha
  Percent inhibition AGSST: 75%
[2]; 900 g/ha
  Percent inhibition AGSST: 100%
Corn (ZEAMX); 10 g/ha
  Percent inhibition ZEAMX: 0%
Corn (ZEAMX); 30 g/ha
  Percent inhibition ZEAMX: 0%
Corn (ZEAMX); 100 g/ha
  Percent inhibition ZEAMX: 0%
Corn (ZEAMX); 300 g/ha
  Percent inhibition ZEAMX: 20%
Corn (ZEAMX); 900 g/ha
  Percent inhibition ZEAMX: 40%
DIGSA (large crabgrass); 10 g/ha
  Percent inhibition DIGSA: 0%
DIGSA (large crabgrass); 30 g/ha
  Percent inhibition DIGSA: 80%
DIGSA (large crabgrass); 100 g/ha
  Percent inhibition DIGSA: 90%
DIGSA (large crabgrass); 300 g/ha
  Percent inhibition DIGSA: 100%
DIGSA (large crabgrass); 900 g/ha
  Percent inhibition DIGSA: 99%
DIGSA (large crabgrass); [4]
  PPI activity GR80, DIGSA: 100 g/ha
AVEFA (wild oat); [4]
  PPI activity GR80, AVEFA: 300 g/ha
AVEFA (wild oat); 10 g/ha
  Percent inhibition AVEFA: 0%
AVEFA (wild oat); 30 g/ha
  Percent inhibition AVEFA: 0%
AVEFA (wild oat); 100 g/ha
  Percent inhibition AVEFA: 0%
AVEFA (wild oat); 300 g/ha
  Percent inhibition AVEFA: 0%
AVEFA (wild oat); 900 g/ha
  Percent inhibition AVEFA: 60%
Soybean (GLYMX); 10 g/ha
  Percent inhibition GLYMX: 0%
Soybean (GLYMX); 30 g/ha
  Percent inhibition GLYMX: 0%
Soybean (GLYMX); 100 g/ha
  Percent inhibition GLYMX: 0%
Soybean (GLYMX); 300 g/ha
  Percent inhibition GLYMX: 0%
Soybean (GLYMX); 900 g/ha
  Percent inhibition GLYMX: 30%
[3]
  Pre-emergence activity (GR80) CIRAR: 100 g/ha
SOLNI (black nightshade)
  Pre-emergence activity (GR80) SOLNI: 100 g/ha
STEME (common chickweed)
  Pre-emergence activity GR80, STEME: [empty]
